The text below walks through data of patent US9840498B2, “Substituted quinazolin-4-one derivatives” (NOVARTIS AG, priority 2013, dated 2017).

The target of one test is PI3K alpha (Homo sapiens (Human), UniProt P42336). Briefly: Biochemical assay for PI3Kalpha (Kinase-Glo format). As to conditions: enzymatic assay. Here is the method: 1.1 Generation of Gene Constructs, Protein Expression and Purification
For the enzymatic assays, the preparation of PI3K gene constructs, protein expression and purification for HTS are described in WO2012/004299.
1.2 Biochemical Assays for PI3Kalpha, PI3Kbeta (Kinase-Glo Format)
The kinase reaction is performed in a final volume of 50 μl per well of a half area COSTAR, 96 well plate. The final concentrations of ATP and phosphatidyl inositol in the assay are 5 μM and 6 μg/mL, respectively. The reaction is started by the addition of PI3 kinase, e.g. PI3 kinase α.
The components of the assay are added per well as follows: • 10 μl test compound in 5% DMSO per well in […]. • Total activity is determined by addition 10 μl of 5% vol/vol DMSO in the first 4 wells of column 1 and the last 4 wells of column 12. • The background is determined by addition of 10 μM control compound to the last 4 wells of column 1 and the first 4 wells of column 12. • 2 mL ‘Assay mix’ are prepared per plate: • 1.912 mL of HEPES assay buffer • 8.33 μl of 3 mM stock of ATP giving a final concentration of 5 μM per well • 1 μl of [^33P]ATP on the activity date giving 0.05 μCi per well • 30 μl of 1 mg/mL PI stock giving a final concentration of 6 μg/mL per well • 5 μl of 1 M stock MgCl2 giving a final concentration of 1 mM per well • 20 μl of the assay mix are added per well. • 2 mL ‘Enzyme mix’ are prepared per plate (x* μl PI3 kinase p110α in 2 mL of kinase buffer). The ‘Enzyme mix’ is kept on ice during addition to the assay plates. * The volume of enzyme is dependent on the enzymatic activity of the batch in use. • 20 μl ‘Enzyme mix’ are added/well to start the reaction. • The plate is then incubated at room temperature for 90 minutes. • The reaction is terminated by the addition of 50 μl WGA-SPA bead (wheat germ agglutinin-coated Scintillation Proximity Assay beads) suspension per well. • The assay plate is sealed using TopSeal-S (heat seal for polystyrene microplates, PerkinElmer LAS [Deutschland] GmbH, Rodgau, Germany) and incubated at room temperature for at least 60 minutes. • The assay plate is then centrifuged at 1500 rpm for 2 minutes using the Jouan bench top centrifuge (Jouan Inc., Nantes, France). • The assay plate is counted using a Packard TopCount, each well being counted for 20 seconds.
In a more preferred assay, the kinase reaction is performed in a final volume of 10 μl per well of a low volume non-binding CORNING, 384 well black plate (Cat. No. #3676). The final concentrations of ATP and phosphatidyl inositol (PI) in the assay are 1 μM and 10 μg/mL, respectively. The reaction is started by the addition of ATP.
The components of the assay are added per well as follows: […]

The target of a further test is PI3K gamma (Homo sapiens (Human), UniProt P48736). The experiment in a line: Biochemical assay for PI3Kgamma (Adapta TR-FRET format). As to conditions: enzymatic assay. The text has this: For the enzymatic assays, the preparation of PI3K gene constructs, protein expression and purification for HTS are described in WO2012/004299. […] The TR-FRET Adapta™ Universal Kinase Assay Kit was purchased from Invitrogen Corporation (Carlsbad/CA, USA) (Cat. No. PV5099). The kit contains the following reagents: Adapta Eu-anti-ADP Antibody (Europium labeled anti-ADP antibody in HEPES buffered saline, Cat. No. PV5097), Alexa Fluor® 647-labeled ADP tracer (Alexa Fluor® 647-labeled ADP tracer in HEPES buffered saline, Cat. No. PV5098), proprietary TR-FRET dilution buffer pH 7.5 (Cat. No. PV3574). PIK3CD substrate Phosphatidylinositol was obtained from Invitrogen (vesicules consisting of 2 mM PI in 50 mM HEPES pH7.5; Cat. No. PV5371). PIK3CG substrate Phosphatidylinositol-4,5-bisphosphate (PIP(4,5)2 was obtained from Invitrogen (PIP2:PS large unilamellar vesicules consisting of 1 mM PI P2: 19 mM PS in 50 mM HEPES pH7.5, 3 mM MgCl2, 1 mM EGTA; Cat. No. PV5100). Time-Resolved Fluorescence Resonance Energy Transfer (TR-FRET) is a technology based on energy transfer between two adjacent dyes, from an excited electron in one dye (the donor) to an electron of an adjacent dye (the acceptor) through resonance, then released as a photon. This energy transfer is detected by an increase in the fluorescence emission of the acceptor, and a decrease in the fluorescence emission of the donor. TR-FRET assays for protein kinases use a long-lifetime lanthanide Terbium or Europium chelates as the donor species which overcome interference from compound autofluorescence or light scatter from precipitated compounds, by introducing a delay after excitation by a flashlamp excitation source. Results are often expressed as a ratio of the intensities of the acceptor and donor fluorophores. The ratiometric nature of such a value corrects for differences in assay volumes between wells, as well as corrects for quenching effects due to colored compounds. The Adapta™ assay can be divided into two phases: a kinase reaction phase and an ADP detection phase. In the kinase reaction phase, all kinase reaction components are added to the well and the reaction is allowed to incubate for a set period of time specific for each kinase. After the reaction, a detection solution of Eu-labeled anti-ADP antibody, Alexa Fluor® 647-labeled ADP tracer, and EDTA (to stop the kinase reaction) are added to the assay well. ADP formed by the kinase reaction will displace the Alexa Fluor® 647-labeled ADP tracer from the antibody, resulting in a decrease in TR-FRET signal. In the presence of an inhibitor, the amount of ADP formed by the kinase reaction is reduced, and the resulting intact antibody-tracer interaction maintains a high TR-FRET signal. In the Adapta™ assay, the donor (Europium-anti-ADP antibody) is excited at 340 nm and will transfer its energy to the acceptor (Alexa Fluor® 647-labeled ADP tracer). The emission from the Alexa Fluor® 647 can be monitored with a filter centered at 665 nm because it is located between the emission peaks of the donor, which is measured at 615/620 nm. 50 nL of compound dilutions were dispensed onto white 384-well small volume polystyrene plate as described in section 2.2. Then 5 μL of PI3Kgamma and PI3Kdelta and lipid substrate (PI or PIP2:PS) followed by 5 μL of ATP (final assay volume 10 μL) are incubated at RT. […] Reactions were stopped with 5 μL of a mixture of EDTA containing the Eu-labeled anti-ADP antibody and the Alexa Fluor® 647-labeled ADP tracer in TR-FRET dilution buffer (proprietary to IVG). Plates are read 15 to 60 mins later in a Synergy2 reader using an integration time of 0.4 seconds and a delay of 0.05 seconds. […] The control for the 0% inhibition was given by the solvent vehicle of the compounds (90% DMSO in H2O). Data are analyzed using Excel fit software or Graphpad Prism. EC50 values were derived by fitting a sigmoidal dose-response curve to a plot of assay readout over inhibitor concentration. […]
For orientation: In TR-FRET formats the signal depends on donor and acceptor labels being close together.

PI3K gamma, sequence (P48736 whole entry): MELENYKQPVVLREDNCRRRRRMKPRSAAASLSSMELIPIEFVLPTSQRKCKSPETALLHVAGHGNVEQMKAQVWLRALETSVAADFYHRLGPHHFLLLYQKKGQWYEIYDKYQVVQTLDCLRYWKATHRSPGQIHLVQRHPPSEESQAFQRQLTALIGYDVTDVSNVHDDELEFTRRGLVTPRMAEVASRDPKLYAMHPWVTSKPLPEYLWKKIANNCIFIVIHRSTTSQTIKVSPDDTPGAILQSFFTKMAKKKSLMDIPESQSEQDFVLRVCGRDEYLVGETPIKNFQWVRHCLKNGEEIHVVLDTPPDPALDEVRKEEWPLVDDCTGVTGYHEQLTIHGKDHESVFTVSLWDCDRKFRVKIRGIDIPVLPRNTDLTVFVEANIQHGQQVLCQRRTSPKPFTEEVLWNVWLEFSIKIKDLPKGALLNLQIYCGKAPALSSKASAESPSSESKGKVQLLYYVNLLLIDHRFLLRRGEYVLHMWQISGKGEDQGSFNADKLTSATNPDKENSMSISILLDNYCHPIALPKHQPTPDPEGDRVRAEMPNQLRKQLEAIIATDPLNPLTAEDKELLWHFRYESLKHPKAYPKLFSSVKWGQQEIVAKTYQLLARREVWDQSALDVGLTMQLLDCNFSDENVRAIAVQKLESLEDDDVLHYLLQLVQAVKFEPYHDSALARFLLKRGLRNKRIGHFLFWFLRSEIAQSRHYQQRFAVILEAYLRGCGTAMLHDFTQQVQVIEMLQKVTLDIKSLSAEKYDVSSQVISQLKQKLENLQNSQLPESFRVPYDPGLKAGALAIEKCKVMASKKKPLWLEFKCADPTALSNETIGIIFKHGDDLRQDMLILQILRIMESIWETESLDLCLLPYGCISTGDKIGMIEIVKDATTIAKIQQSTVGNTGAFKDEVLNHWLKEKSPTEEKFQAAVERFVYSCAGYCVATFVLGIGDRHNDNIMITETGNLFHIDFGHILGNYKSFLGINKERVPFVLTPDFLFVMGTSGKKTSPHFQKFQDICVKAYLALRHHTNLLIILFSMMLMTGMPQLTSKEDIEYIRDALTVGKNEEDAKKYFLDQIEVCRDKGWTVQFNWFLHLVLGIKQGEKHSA
PI3K alpha, sequence (P42336 21-1068): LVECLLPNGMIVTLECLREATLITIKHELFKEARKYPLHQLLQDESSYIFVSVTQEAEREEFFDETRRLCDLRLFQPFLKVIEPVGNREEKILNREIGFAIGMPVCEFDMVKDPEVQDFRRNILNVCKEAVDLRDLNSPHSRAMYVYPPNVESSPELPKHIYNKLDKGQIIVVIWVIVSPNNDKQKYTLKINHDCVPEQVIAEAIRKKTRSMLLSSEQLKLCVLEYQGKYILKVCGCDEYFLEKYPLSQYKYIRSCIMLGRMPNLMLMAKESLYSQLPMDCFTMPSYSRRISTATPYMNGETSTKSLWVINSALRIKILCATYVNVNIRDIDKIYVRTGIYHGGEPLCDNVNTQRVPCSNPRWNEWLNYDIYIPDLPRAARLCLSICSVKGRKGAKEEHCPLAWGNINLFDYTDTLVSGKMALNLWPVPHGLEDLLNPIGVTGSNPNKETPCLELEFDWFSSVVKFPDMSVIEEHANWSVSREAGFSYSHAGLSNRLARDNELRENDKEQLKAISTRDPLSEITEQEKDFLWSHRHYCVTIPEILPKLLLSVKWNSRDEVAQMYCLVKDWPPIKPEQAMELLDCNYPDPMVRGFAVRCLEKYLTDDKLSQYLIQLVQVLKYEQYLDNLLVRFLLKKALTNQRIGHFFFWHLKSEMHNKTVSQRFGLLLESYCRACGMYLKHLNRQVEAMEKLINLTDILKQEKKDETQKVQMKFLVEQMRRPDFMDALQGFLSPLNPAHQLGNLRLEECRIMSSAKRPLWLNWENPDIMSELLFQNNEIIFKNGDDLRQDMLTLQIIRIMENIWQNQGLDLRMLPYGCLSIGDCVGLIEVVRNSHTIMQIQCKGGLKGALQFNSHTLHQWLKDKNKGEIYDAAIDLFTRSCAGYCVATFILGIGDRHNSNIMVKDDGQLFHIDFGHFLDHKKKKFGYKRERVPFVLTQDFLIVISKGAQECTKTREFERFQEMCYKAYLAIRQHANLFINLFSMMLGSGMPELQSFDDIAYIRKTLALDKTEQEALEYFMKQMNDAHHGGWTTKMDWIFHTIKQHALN
PI3K alpha, sequence (P27986 461-568 partner): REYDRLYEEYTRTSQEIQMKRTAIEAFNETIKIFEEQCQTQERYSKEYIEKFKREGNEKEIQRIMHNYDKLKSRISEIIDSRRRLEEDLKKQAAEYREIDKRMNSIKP

On to `Cc1nc(N)nc(N2C[C@@H](O)C[C@H]2c2nc3cccc(-c4cnn(CCO)c4)c3c(=O)n2-c2ccccc2)c1C#N` [Example 28, 2-Amino-4-((2S,4S)-4-hydroxy-2-(5-(1-(2-hydroxyethyl)-1H-pyrazol-4-yl)-4-oxo-3-phenyl-3,4-dihydroquinazolin-2-yl)pyrrolidin-1-yl)-6-methylpyrimidine-5-carbonitrile], for which the IC50 (usually the midpoint of a concentration-inhibition curve) on PI3K alpha stood at 240 nM; at PI3K gamma, 21 nM.

With `Cc1nc(N)nc(N2C[C@@H](O)C[C@H]2c2nc3ccc(F)c(-c4cnn(C)c4)c3c(=O)n2-c2ccccc2)c1C#N` [Example 1, 2-Amino-4-((2S,4S)-2-(6-fluoro-5-(1-methyl-1H-pyrazol-4-yl)-4-oxo-3-phenyl-3,4-dihydroquinazolin-2-yl)-4-hydroxypyrrolidin-1-yl)-6-methylpyrimidine-5-carbonitrile], the IC50 on PI3K alpha stood at 74 nM; on PI3K gamma, 28 nM.

As to `Cc1nc(N)nc(N2CCC[C@H]2c2nc3cccc(-c4cnn(C)c4)c3c(=O)n2-c2ccccc2)c1C#N` [Example 13, (S)-2-Amino-4-methyl-6-(2-(5-(1-methyl-1H-pyrazol-4-yl)-4-oxo-3-phenyl-3,4-dihydroquinazolin-2-yl)pyrrolidin-1-yl)pyrimidine-5-carbonitrile], the IC50 on PI3K alpha turned out to be 260 nM; on PI3K gamma, 120 nM.

With `Cc1ncc(-c2cccc3nc([C@@H]4CCCN4c4nc(N)nc(C)c4C#N)n(-c4ccccc4)c(=O)c23)cn1` [Example 19, (S)-2-Amino-4-methyl-6-(2-(5-(2-methylpyrimidin-5-yl)-4-oxo-3-phenyl-3,4-dihydroquinazolin-2-yl)pyrrolidin-1-yl)pyrimidine-5-carbonitrile], the figures for the half-maximal inhibitory concentration (IC50) against PI3K alpha and at PI3K gamma were 820 nM and 390 nM, respectively.

Consider `COc1ncc(-c2cccc3nc([C@@H]4CCCN4c4nc(N)nc(C)c4C#N)n(-c4ccccc4)c(=O)c23)cn1` [Example 4, (S)-2-Amino-4-(2-(5-(2-methoxypyrimidin-5-yl)-4-oxo-3-phenyl-3,4-dihydroquinazolin-2-yl)pyrrolidin-1-yl)-6-methylpyrimidine-5-carbonitrile], for which the results for the IC50 on PI3K alpha and on PI3K gamma were 320 nM and 82 nM, respectively.

For `Cn1cc(-c2cccc3nc([C@@H]4CCCN4c4ncnc(N)c4C#N)n(-c4ccccc4)c(=O)c23)cn1` [Example 2, (S)-4-Amino-6-(2-(5-(1-methyl-1H-pyrazol-4-yl)-4-oxo-3-phenyl-3,4-dihydroquinazolin-2-yl)pyrrolidin-1-yl)pyrimidine-5-carbonitrile], the 50% inhibitory concentration (IC50) on PI3K alpha came to 1300 nM; at PI3K gamma it was 150 nM.

As to `Cc1nc(N)nc(N2CCC[C@H]2c2nc3ccc(F)c(-c4cnn(C)c4)c3c(=O)n2-c2ccccc2)c1C#N` [Example 6, (S)-2-Amino-4-(2-(6-fluoro-5-(1-methyl-1H-pyrazol-4-yl)-4-oxo-3-phenyl-3,4-dihydroquinazolin-2-yl)pyrrolidin-1-yl)-6-methylpyrimidine-5-carbonitrile], the IC50 against PI3K alpha was found to be 130 nM; on PI3K gamma, 56 nM.

For `Cc1nc(N)nc(N2CCC[C@H]2c2nc3cccc(-c4cncnc4)c3c(=O)n2-c2ccccc2)c1C#N` [Example 17, (S)-2-Amino-4-methyl-6-(2-(4-oxo-3-phenyl-5-(pyrimidin-5-yl)-3,4-dihydroquinazolin-2-yl)pyrrolidin-1-yl)pyrimidine-5-carbonitrile], the concentration for half-maximal inhibition (IC50) on PI3K alpha came out at 1200 nM; on PI3K gamma it was 940 nM.

With `CCOc1ncc(-c2cccc3nc([C@@H]4CCCN4c4nc(N)nc(C)c4C#N)n(-c4ccccc4)c(=O)c23)cn1` [Example 32, (S)-2-Amino-4-(2-(5-(2-ethoxypyrimidin-5-yl)-4-oxo-3-phenyl-3,4-dihydroquinazolin-2-yl)pyrrolidin-1-yl)-6-methylpyrimidine-5-carbonitrile], the half-maximal inhibitory concentration (IC50) was determined as 490 nM against PI3K alpha and 140 nM at PI3K gamma.

In the case of `Cc1nc(N)nc(N2C[C@@H](O)C[C@H]2c2nc3ccc(F)c(-c4cn(C)cn4)c3c(=O)n2-c2ccccc2)c1C#N` [Example 31, 2-Amino-4-((2S,4S)-2-(6-fluoro-5-(1-methyl-1H-imidazol-4-yl)-4-oxo-3-phenyl-3,4-dihydroquinazolin-2-yl)-4-hydroxypyrrolidin-1-yl)-6-methylpyrimidine-5-carbonitrile], the half-inhibitory concentration (IC50) against PI3K alpha worked out at 570 nM; at PI3K gamma, 110 nM.

As for `COc1ncc(-c2c(F)ccc3nc([C@@H]4C[C@H](O)CN4c4nc(N)nc(C)c4C#N)n(-c4ccccc4)c(=O)c23)cn1` [Example 7, 2-Amino-4-((2S,4S)-2-(6-fluoro-5-(2-methoxypyrimidin-5-yl)-4-oxo-3-phenyl-3,4-dihydroquinazolin-2-yl)-4-hydroxypyrrolidin-1-yl)-6-methylpyrimidine-5-carbonitrile], the 50% inhibitory concentration (IC50) against PI3K alpha came out at 210 nM; at PI3K gamma, 110 nM.

Turning to `COc1ccc(-c2cccc3nc([C@@H]4CCCN4c4nc(N)nc(C)c4C#N)n(-c4ccccc4)c(=O)c23)cn1` [Example 21, (S)-2-Amino-4-(2-(5-(6-methoxypyridin-3-yl)-4-oxo-3-phenyl-3,4-dihydroquinazolin-2-yl)pyrrolidin-1-yl)-6-methylpyrimidine-5-carbonitrile], the IC50 against PI3K alpha is 260 nM; at PI3K gamma, 270 nM.
